From US11464770B2, “Anticancer pharmaceutical composition” (NATIONAL CANCER CENTER, priority 2016, dated 2022)
Where two headings read alike, the source gives them in different places.

How the values were obtained:
[1] = tested on: cervical carcinoma cell lines; experiment: Cell based assay, cell viability (CellTiter-Glo), cervical carcinoma cell lines; conditions: Homo sapiens; HeLa cells
[2] = tested on: blood cancer cell lines (e.g. HL-60, Jurkat, Raji, Ramos, Daudi, MOLT-4); experiment: Cell based assay, cell viability (CellTiter-Glo), blood cancer cell lines; conditions: Homo sapiens
Method in brief: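 Commercial tumour lines, detached with trypsin-EDTA, were seeded and incubated 24 h. They were then dosed to 0–2 μM final, grown 72 h, and assessed for viability using CellTiter-Glo.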

[3] = MV4-11, blood cancer cell line MV-4-11, 72 hours, read-out: IC50, MV-4-11
[4] = blood cancer cell line Daudi, 72 hours, read-out: IC50, Daudi
[5] = blood cancer cell line HL-60, 72 hours, read-out: IC50, HL-60
[6] = blood cancer cell line Jurkat, 72 hours, read-out: IC50, Jurkat
[7] = blood cancer cell line MOLT-4, 72 hours, read-out: IC50, MOLT-4
[8] = blood cancer cell line Raji, 72 hours, read-out: IC50, Raji
[9] = blood cancer cell line Ramos (RA 1), 72 hours, read-out: IC50, Ramos (RA 1)
[10] = blood cancer cell line U-937, 72 hours, read-out: IC50, U-937

Row | SMILES | IC50 [1] [µM] | IC50 [2, 3] [µM] | IC50 [2, 4] [µM] | IC50 [2, 5] [µM] | IC50 [2, 6] [µM] | IC50 [2, 7] [µM] | IC50 [2, 8] [µM] | IC50 [2, 9] [µM] | IC50 [2, 10] [µM]
1 | CC(=O)c1c([S+]([O-])Cc2ccc(C(F)(F)F)cc2)[nH]c2c(Br)ccc(Cl)c2c1=O (stereo not drawn) [Compound 70, 3-acetyl-8-bromo-5-chloro-2-((4-(trifluoromethyl)benzyl)sulfinyl)quinolin-4(1H)-one] | > 10 | 1.52 | 1.6 | > 2 | 1.09 | 1.31 | 1.32 | 1.9 | > 2
2 | CC(=O)c1c([S+]([O-])Cc2ccc(OC(F)(F)F)cc2)[nH]c2c(Br)ccc(Cl)c2c1=O (stereo not drawn) [Compound 71, 3-acetyl-8-bromo-5-chloro-2-((4-(trifluoromethoxy)benzyl)sulfinyl)quinolin-4(1H)-one] | > 10 | > 2 | > 2 | > 2 | 1.25 | 1.51 | 1.65 | > 2 | > 2
3 | CC(=O)c1c([S+]([O-])Cc2ccc(C(F)(F)F)o2)[nH]c2c(Br)ccc(Cl)c2c1=O (stereo not drawn) [Compound 72, 3-acetyl-8-bromo-5-chloro-2-(((5-(trifluoromethyl)furan-2-yl)methyl)sulfinyl)quinolin-4(1H)-one] | > 2 | 1.12 | 1.6 | 1.3 | 0.78 | 1.05 | 0.94 | 1.37 | 0.97
4 | CC(=O)c1c([S+]([O-])Cc2ccc(C#N)cc2)[nH]c2c(Br)ccc(Cl)c2c1=O (stereo not drawn) [Compound 73, 4-(((3-acetyl-8-bromo-5-chloro-4-oxo-1,4-dihydroquinolin-2-yl)sulfinyl)methyl)benzonitrile] | > 10 | 1.31 | > 2 | 1.6 | > 2 | > 2 | > 2 | > 2 | > 2
5 | CC(=O)c1c([S+]([O-])Cc2c(F)cccc2Cl)[nH]c2c(Br)ccc(Cl)c2c1=O (stereo not drawn) [Compound 74, 3-acetyl-8-bromo-5-chloro-2-((2-chloro-6-fluorobenzyl)sulfinyl)quinolin-4(1H)-one] | > 10 | 1.34 | > 2 | 1.98 | > 2 | 1.71 | > 2 | > 2 | > 2
6 | COc1cc(S(F)(F)(F)(F)F)ccc1C[S+]([O-])c1[nH]c2c(Br)ccc(Cl)c2c(=O)c1C(C)=O (stereo not drawn) [Compound 75, 3-acetyl-8-bromo-5-chloro-2-((2-methoxy-4-(pentafluoro--sulfanyl)benzyl)sulfinyl)quinolin-4(1H)-one] | > 10 | > 2 | 1.26 | > 2 | 1.09 | 1.28 | 1.16 | > 2 | > 2
7 | CC(=O)c1c([S+]([O-])Cc2cc(F)cc(S(F)(F)(F)(F)F)c2)[nH]c2c(Br)ccc(Cl)c2c1=O (stereo not drawn) [Compound 76, 3-acetyl-8-bromo-5-chloro-2-((3-fluoro-5-(pentafluoro--sulfanyl)benzyl)sulfinyl)quinolin-4(1H)-one] | > 10 | > 2 | 1.66 | > 2 | 1.2 | 1.62 | 1.35 | > 2 | > 2
8 | CC(=O)c1c([S+]([O-])Cc2c(F)c(F)c(F)c(F)c2F)[nH]c2c(Br)ccc(Cl)c2c1=O (stereo not drawn) [Compound 78, 3-acetyl-8-bromo-5-chloro-2-(((perfluorophenyl)methyl)sulfinyl)quinolin-4(1H)-one] | > 10 | > 2 | > 2 | > 2 | > 2 | > 2 | > 2 | 1.98 | > 2
9 | CC(=O)c1c([S+]([O-])Cc2ccc(I)cc2)[nH]c2c(Cl)ccc(Cl)c2c1=O (stereo not drawn) [Compound 83, 3-acetyl-5,8-dichloro-2-((4-iodobenzyl)sulfinyl)quinolin-4(1H)-one] | > 10 | > 2 | 1.22 | > 2 | 1.31 | 1.25 | 1.75 | 1.17 | > 2
10 | CC(=O)c1c([S+]([O-])Cc2cccnc2)[nH]c2c(Br)ccc(Cl)c2c1=O (stereo not drawn) [Compound 84, 3-acetyl-8-bromo-5-chloro-2-((pyridin-3-ylmethyl)sulfinyl)quinolin-4(1H)-one] | > 10 | 0.82 | 1.12 | 1.48 | 0.98 | 0.97 | 1.5 | 1 | 1.48
11 | Cc1cc(C[S+]([O-])c2[nH]c3c(Cl)ccc(Cl)c3c(=O)c2C(=O)C(C)C)no1 (stereo not drawn) [Compound 86, 5,8-dichloro-3-isobutyryl-2-(((5-methylisoxazol-3-yl)methyl)sulfinyl)quinolin-4(1H)-one] | > 2 | 0.71 | 0.65 | 1.38 | 0.55 | 1.01 | 0.82 | 0.46 | 1.23
12 | COC(=O)c1ccc(C[S+]([O-])c2[nH]c3c(Cl)ccc(Cl)c3c(=O)c2C(C)=O)o1 (stereo not drawn) [Compound 89, methyl 5-(((3-acetyl-5,8-dichloro-4-oxo-1,4-dihydroquinolin-2-yl)sulfinyl)methyl)furan-2-carboxylate] | > 10 | 1.75 | > 2 | > 2 | 1.38 | > 2 | > 2 | 1.71 | > 2
